Measured values reported in US8299022B2, “Analogs of ghrelin substituted at the N-terminal” (IPSEN Pharma S.A.S., priority 2006, dated 2012).

Assay: Rat plasma ½ life (stability in plasma in a rat model)
Type: in vitro ADME
Experimental: A selection of the preferred embodiments listed above was analyzed to determine stability, i.e. ½ life in plasma in a rat model using techniques known to those skilled in the art.

SMILES	Rat Plasma ½ life [h]
CCCCCCNC(=O)CC[C@H](NC(=O)C(C)(C)NC(=O)C1(N)CCNCC1)C(=O)N[C@@H](Cc1ccccc1)C(=O)N[C@@H](CC(C)C)C(=O)N[C@@H](CO)C(=O)N1CCC[C@H]1C(=O)N[C@@H](CCC(=O)O)C(=O)N[C@@H](Cc1c[nH]cn1)C(=O)NC(C)(C)C(=O)N[C@@H](CCCNC(=N)N)C(=O)N[C@H](C(=O)N[C@@H](CCC(N)=O)C(=O)N[C@@H](CCC(N)=O)C(=O)N[C@@H](CCCNC(=N)N)C(=O)N[C@@H](CCCCN)C(=O)N[C@@H](CCC(=O)O)C(=O)N[C@@H](CO)C(=O)N[C@@H](CCCCN)C(=O)N[C@@H](CCCCN)C(=O)N1CCC[C@H]1C(=O)N1CCC[C@H]1C(=O)N[C@@H](C)C(=O)N[C@@H](CCCCN)C(=O)N[C@@H](CC(C)C)C(=O)N[C@@H](CCC(N)=O)C(=O)N1CCC[C@H]1C(=O)N[C@@H](CCCNC(=N)N)C(N)=O)C(C)C [Example 4, (1-Apc^1, Aib^2, 10, Glu(NH-hexyl)^3)-hGhrelin(1-28)-NH2]	10.0
CCCCCCCC(=O)OC[C@H](NC(=O)[C@H](CO)NC(=O)C1CCNCC1)C(=O)N[C@@H](Cc1ccccc1)C(=O)N[C@@H](CC(C)C)C(=O)N[C@@H](CO)C(=O)N1CCC[C@H]1C(=O)N[C@@H](CCC(=O)O)C(=O)N[C@@H](Cc1c[nH]cn1)C(=O)N[C@@H](CCC(N)=O)C(=O)N[C@@H](CCCNC(=N)N)C(=O)N[C@H](C(=O)N[C@@H](CCC(N)=O)C(=O)N[C@@H](CCC(N)=O)C(=O)N[C@@H](CCCNC(=N)N)C(=O)N[C@@H](CCCCN)C(=O)N[C@@H](CCC(=O)O)C(=O)N[C@@H](CO)C(=O)N[C@@H](CCCCN)C(=O)N[C@@H](CCCCN)C(=O)N1CCC[C@H]1C(=O)N1CCC[C@H]1C(=O)N[C@@H](C)C(=O)N[C@@H](CCCCN)C(=O)N[C@@H](CC(C)C)C(=O)N[C@@H](CCC(N)=O)C(=O)N1CCC[C@H]1C(=O)N[C@@H](CCCNC(=N)N)C(N)=O)C(C)C [Example 5, (Inp^1)hGhrelin(1-28)-NH2]	6.2
CCCCCCCC(=O)OC[C@H](NC(=O)C(C)(C)NC(=O)C1CCNCC1)C(=O)N[C@@H](Cc1ccccc1)C(=O)N[C@@H](CC(C)C)C(=O)N[C@@H](CO)C(=O)N1CCC[C@H]1C(=O)N[C@@H](CCC(=O)O)C(=O)N[C@@H](Cc1c[nH]cn1)C(=O)N[C@@H](CCC(N)=O)C(=O)N[C@@H](CCCNC(=N)N)C(=O)N[C@H](C(=O)N[C@@H](CCC(N)=O)C(=O)N[C@@H](CCC(N)=O)C(=O)N[C@@H](CCCNC(=N)N)C(=O)N[C@@H](CCCCN)C(=O)N[C@@H](CCC(=O)O)C(=O)N[C@@H](CO)C(=O)N[C@@H](CCCCN)C(=O)N[C@@H](CCCCN)C(=O)N1CCC[C@H]1C(=O)N1CCC[C@H]1C(=O)N[C@@H](C)C(=O)N[C@@H](CCCCN)C(=O)N[C@@H](CC(C)C)C(=O)N[C@@H](CCC(N)=O)C(=O)N1CCC[C@H]1C(=O)N[C@@H](CCCNC(=N)N)C(N)=O)C(C)C [Example 6, (Inp^1, Aib^2)hGhrelin(1-28)-NH2]	1.4
CCCCCCNC(=O)CC[C@H](NC(=O)C(C)(C)NC(=O)C1CCNCC1)C(=O)N[C@@H](Cc1ccccc1)C(=O)N[C@@H](CC(C)C)C(=O)N[C@@H](CO)C(=O)N1CCC[C@H]1C(=O)N[C@@H](CCC(=O)O)C(=O)N[C@@H](Cc1c[nH]cn1)C(=O)N[C@@H](CCC(N)=O)C(=O)N[C@@H](CCCNC(=N)N)C(=O)N[C@H](C(=O)N[C@@H](CCC(N)=O)C(=O)N[C@@H](CCC(N)=O)C(=O)N[C@@H](CCCNC(=N)N)C(=O)N[C@@H](CCCCN)C(=O)N[C@@H](CCC(=O)O)C(=O)N[C@@H](CO)C(=O)N[C@@H](CCCCN)C(=O)N[C@@H](CCCCN)C(=O)N1CCC[C@H]1C(=O)N1CCC[C@H]1C(=O)N[C@@H](C)C(=O)N[C@@H](CCCCN)C(=O)N[C@@H](CC(C)C)C(=O)N[C@@H](CCC(N)=O)C(=O)N1CCC[C@H]1C(=O)N[C@@H](CCCNC(=N)N)C(N)=O)C(C)C [Example 7, (Inp^1, Aib^2, Glu(NH-hexyl)^3)hGhrelin(1-28)-NH2]	6.7
